Measurements from patent US20120214186A1, “METHODS AND COMPOSITIONS FOR DETECTING AND QUANTIFYING sAPPbeta” (priority 2006, published 2012).

Experiments:
[1] = test system: SY5Y-BACEGFP-SEAPAPPwt stable cells; conditions: at concentrations used; data not shown
BACE1 [2] = biological target: T1, BACE1 (Homo sapiens, UniProt P56817); experiment: Cell-based BACE1 assay (sAPPβ ELISA-SEAP), SY5Y-BACEGFP-SEAPAPPwt stable cells; conditions: 6 hours, 96-well; TAPI-2 100 mM, BACE inhibitor IV 5 mM, AEBSF 500 mM, Cpd E 20 nM
T1 construct: expressed in transfected cells
T1 sequence (P56817 46-501): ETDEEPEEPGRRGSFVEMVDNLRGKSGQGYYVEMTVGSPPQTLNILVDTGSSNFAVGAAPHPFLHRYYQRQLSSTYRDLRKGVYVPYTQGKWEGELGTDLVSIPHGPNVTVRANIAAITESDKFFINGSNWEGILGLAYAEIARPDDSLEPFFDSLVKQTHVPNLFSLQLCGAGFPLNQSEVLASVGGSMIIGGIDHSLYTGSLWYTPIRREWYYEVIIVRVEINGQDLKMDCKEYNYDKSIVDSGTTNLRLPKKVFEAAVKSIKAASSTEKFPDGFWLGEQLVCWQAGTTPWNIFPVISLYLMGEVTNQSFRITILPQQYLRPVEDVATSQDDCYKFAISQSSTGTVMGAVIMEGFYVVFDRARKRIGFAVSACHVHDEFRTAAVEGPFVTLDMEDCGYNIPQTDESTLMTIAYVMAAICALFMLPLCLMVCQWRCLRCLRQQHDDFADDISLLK
Description: […] cells expressing BACEGFP and SEAPAPPwt were grown on standard cell culture plates in DMEM (Invitrogen) supplemented with 10% fetal bovine serum, 1% Pen/Strep/Glutamine, and 250 μg/ml zeocin. SEAPAPPwt is cleaved by BACE1 (β-secretase) as well as a secretase to release large extracellular fragments sAPPβ and sAPPα, respectively. Cell culture media containing these fragments was harvested and SEAP-sAPPβ was captured using 96-well plates coated with the sAPPβ specific antibody (sβwt). The ELISA plate was then incubated with the fluorescent alkaline phosphatase substrate 4-MUP (Sigma) at a final concentration of 30 μM (in 100 mM glycine, 1 mM MgCl2, 1 mM ZnCl2 at pH 9.8) for 1 hour before detection (excitation: 360 nm, emission: 449 nm).
SY5Y-BACEGFP-SEAPAPPwt stable cells were grown to 100% confluence on 96-well plates in quadruplicate and incubated for 6 hours with DMSO, TAPI-2 ([…]), RACE inhibitor IV ([…]), AEBSF ([…]), or Cpd E (20 nM) in […] of conditioned media (DMEM (invitrogen) supplemented with 10% fetal bovine serum, 1% Pen/Strep/Glutamine, and 250 μg/ml zeocin).
A sAPPβ ELISA-SEAR assay was conducted using […] of media.
Media was collected after 6 hrs incubation and […] was used in the BACE1 assay as described above.

HEK293-APPNFEV cells = conditions: read-out: reported IC50; cited from earlier work
BACE1 [3] = biological target: T2, BACE1 (Mus musculus, UniProt P56818); conditions: mouse model of AD; cited from earlier work
T2 construct: host or cells: mouse model of AD
T2 sequence (P56818 46-501): as the sequence (P56817 46-501) above, with P6S, V162I, L165I, S180T, V182A, I340V, L393A, Q443H counted along it

[4] = p-glycoprotein inhibitor required to increase transport; cited from earlier work

SMILES | cellular toxicity [1] | effect on sAPPβ (BACE1 [2]) | also measured
NCCc1ccc(S(=O)(=O)F)cc1 [AEBSF] | do not exhibit significant cellular toxicity | dramatically reduced | –
C[C@@H](NC(=O)c1cc(C(=O)N[C@@H](Cc2ccccc2)[C@H](O)CNC2CC2)cc(N(C)S(C)(=O)=O)c1)c1ccccc1 [BACE inhibitor IV] | do not exhibit significant cellular toxicity | – | IC50 (HEK293-APPNFEV cells): 29 nM
C[C@H](NC(=O)Cc1cc(F)cc(F)c1)C(=O)N[C@H]1N=C(c2ccccc2)c2ccccc2N(C)C1=O [CpdE] | – | no effect | –
CCNc1cc(C(=O)N[C@@H](Cc2ccccc2)[C@H](O)CNCc2cccc(C(F)(F)F)c2)c(F)c(N2CCCCS2(=O)=O)c1 [GSK188909] | – | – | in vivo efficacy (BACE1 [3]): in vivo efficacy; brain penetration [4]: low brain penetration
CC(C)C[C@H](CC(=O)NO)C(=O)N[C@H](C(=O)N[C@@H](C)C(=O)NCCN)C(C)(C)C [TAPI-2] | – | no effect | –
